Data reported in ChEMBL document CHEMBL3045833, “Synthesis and antifungal activity of novel 7-O-substituted pyridyl-4-methyl coumarin derivatives” (2013).
≈ marks a conversion by molar mass, not a printed value.

Tests used:
Type in all cases: functional
Cryptococcus neoformans = test: Antifungal activity against Cryptococcus neoformans assessed as growth inhibition after 72 hr by NCCLS microbroth dilution method
Trichophyton rubrum = test: Antifungal activity against Trichophyton rubrum assessed as growth inhibition by NCCLS microbroth dilution method
Kluyveromyces marxianus = test: Antifungal activity against Kluyveromyces marxianus assessed as growth inhibition by NCCLS microbroth dilution method
Candida parapsilosis = test: Antifungal activity against Candida parapsilosis assessed as growth inhibition by NCCLS microbroth dilution method; settings: Lodderomyces parapsilosis
Candida albicans [1] = test: Antifungal activity against Candida albicans SC5314 assessed as growth inhibition after 24 hr by NCCLS microbroth dilution method; settings: SC5314, 24 h
Aspergillus fumigatus = test: Antifungal activity against Aspergillus fumigatus assessed as growth inhibition by NCCLS microbroth dilution method
Candida tropicalis = test: Antifungal activity against Candida tropicalis assessed as growth inhibition by NCCLS microbroth dilution method
Candida albicans [2] = test: Antifungal activity against Candida albicans Y0109 assessed as growth inhibition after 24 hr by NCCLS microbroth dilution method; settings: Y0109, 24 h

Compound	MIC80 (Cryptococcus neoformans) [µg/mL]	MIC80 (Trichophyton rubrum) [µg/mL]	MIC80 (Kluyveromyces marxianus) [µg/mL]	MIC80 (Candida parapsilosis) [µg/mL]	MIC80 (Candida albicans [1]) [µg/mL]	MIC80 (Aspergillus fumigatus) [µg/mL]	MIC80 (Candida tropicalis) [µg/mL]	MIC80 (Candida albicans [2]) [µg/mL]
Cc1cc(=O)oc2cc(Oc3ccc(NC(=O)c4ccncc4)cn3)ccc12	32 (≈ 85.7 µM)	32	8	0.25	16 (≈ 42.9 µM)	> 64	16	16 (≈ 42.9 µM)
Cc1cc(=O)oc2cc(Oc3ccc(NC(=O)c4cccs4)cn3)ccc12	32 (≈ 84.6 µM)	16	32	32	32 (≈ 84.6 µM)	> 64	16	16 (≈ 42.3 µM)
Cc1cc(=O)oc2cc(Oc3ccc(NC(=O)CN(C)C)cn3)ccc12	16 (≈ 45.3 µM)	16	32	32	32 (≈ 90.6 µM)	> 64	1	16 (≈ 45.3 µM)
Cc1cnc(C(=O)Nc2ccc(Oc3ccc4c(C)cc(=O)oc4c3)nc2)cn1	4 (≈ 10.3 µM)	16	4	> 64	16 (≈ 41.2 µM)	> 64	1	16 (≈ 41.2 µM)
Cc1cc(=O)oc2cc(Oc3ccc(NC(=O)Cc4c[nH]c5ccccc45)cn3)ccc12	8 (≈ 18.8 µM)	16	> 64	> 64	> 64	> 64	> 64	64 (≈ 150 µM)
Cc1cc(=O)oc2cc(Oc3ccc([N+](=O)[O-])cn3)ccc12	64 (≈ 215 µM)	64	> 64	32	> 64	> 64	> 64	64 (≈ 215 µM)
Cc1cc(=O)oc2cc(Oc3ccc(NC(=O)C(C)(C)C)cn3)ccc12	32 (≈ 90.8 µM)	1	16	32	4 (≈ 11.4 µM)	> 64	32	4 (≈ 11.4 µM)
Cc1cc(=O)oc2cc(Oc3ccc(NC(=O)c4ccco4)cn3)ccc12	> 64	16	16	> 64	32 (≈ 88.3 µM)	> 64	8	16 (≈ 44.2 µM)
Cc1cc(=O)oc2cc(Oc3ccc(NC(=O)c4ccccc4)cn3)ccc12	16 (≈ 43 µM)	8	32	1	16 (≈ 43 µM)	> 64	16	4 (≈ 10.7 µM)
OC(Cn1cncn1)(Cn1cncn1)c1ccc(F)cc1F [FLUCONAZOLE]	4 (≈ 13.1 µM)	1	4	4	0.25 (≈ 0.816 µM)	> 64	4	0.25 (≈ 0.816 µM)
Cc1cc(=O)oc2cc(Oc3ccc(NC(=O)c4cccnc4)cn3)ccc12	16 (≈ 42.9 µM)	32	16	32	32 (≈ 85.7 µM)	> 64	32	32 (≈ 85.7 µM)
Cc1cc(=O)oc2cc(Oc3ccc(NC(=O)c4cnccn4)cn3)ccc12	1 (≈ 2.67 µM)	0.25	16	32	4 (≈ 10.7 µM)	> 64	1	4 (≈ 10.7 µM)
Cc1cc(=O)oc2cc(Oc3ccc(NC(=O)c4ccccn4)cn3)ccc12	32 (≈ 85.7 µM)	16	16	32	16 (≈ 42.9 µM)	> 64	16	16 (≈ 42.9 µM)
Cc1cc(=O)oc2cc(Oc3ccc(NC(=O)C(F)(F)F)cn3)ccc12	32 (≈ 87.8 µM)	16	32	1	0.25 (≈ 0.686 µM)	> 64	16	0.25 (≈ 0.686 µM)
C[C@@H]1[C@H](O)[C@@H](C)/C=C/C=C/C=C/C=C/C=C/C=C/C=C/[C@H](O[C@@H]2O[C@H](C)[C@@H](O)[C@H](N)[C@@H]2O)C[C@@H]2O[C@](O)(C[C@@H](O)C[C@@H](O)[C@H](O)CC[C@@H](O)C[C@@H](O)CC(=O)O[C@H]1C)C[C@H](O)[C@H]2C(=O)O [AMPHOTERICIN B]	1 (≈ 1.08 µM)	1	0.25	1	0.25 (≈ 0.271 µM)	1	1	0.25 (≈ 0.271 µM)
Cc1cc(=O)oc2cc(Oc3ccc(NC(=O)Cc4ccccc4)cn3)ccc12	> 64	> 64	> 64	> 64	> 64	> 64	> 64	> 64
Cc1cc(=O)oc2cc(O)ccc12 [HYMECROMONE]	> 64	32	> 64	32	> 64	> 64	> 64	> 64
Cc1cc(=O)oc2cc(Oc3ccc(NC(=O)/C=C/c4ccccc4)cn3)ccc12	> 64	4	16	> 64	> 64	> 64	> 64	> 64
Cc1cc(=O)oc2cc(Oc3ccc(NC(=O)C4CC4)cn3)ccc12	32 (≈ 95.1 µM)	8	32	8	16 (≈ 47.6 µM)	> 64	16	> 64
CC(=O)Nc1ccc(Oc2ccc3c(C)cc(=O)oc3c2)nc1	8 (≈ 25.8 µM)	16	16	1	0.25 (≈ 0.806 µM)	> 64	8	1 (≈ 3.22 µM)
Cc1cc(=O)oc2cc(Oc3ccc(NC(=O)CC#N)cn3)ccc12	16 (≈ 47.7 µM)	0.25	16	4	0.25 (≈ 0.746 µM)	> 64	> 64	16 (≈ 47.7 µM)
Cc1cc(=O)oc2cc(Oc3ccc(NC(=O)C4CCCCC4)cn3)ccc12	32 (≈ 84.6 µM)	8	> 64	4	> 64	> 64	> 64	> 64
Cc1cc(=O)oc2cc(Oc3ccc(N)cn3)ccc12	> 64	32	> 64	32	> 64	> 64	> 64	16 (≈ 59.6 µM)
